{"source": "patent US12329158B2", "about": "“Large-scale methods of uniformly coating packaging surfaces with a volatile antimicrobial to preserve food freshness” (AGROFRESH INC., priority 2013, dated 2025)", "key": {"[1]": {"test_system": "Trichophyton rubrum", "assay": "In vitro volatile assay (Example 26)", "assay_type": "cell-based", "conditions": "Trichophyton rubrum, 120 h, 5 days at 28 C, 100% control, read-out: MIC (mg/L) Trichophyton rubrum", "experimental": "(§1) Volatile assay: 6-well (16.5 mL volume per well) microtiter plates are used in an in vitro inhibition assay for Compounds A and 31, and compared to other registered fungicides (5-fluorocytosine, Amphotericin B, aspofungin diacetate, Fluconazole and Itraconazole). A 7.5-mL volume of half strength PDA is added to each well. After drying, a mycelial plug (5 mm diameter) is aseptically obtained from actively growing cultures of Epidermophyton floccus, Trichophyton rubrum, or Trichophyton mentagrophytes and placed at the center of the plate with the mycelial side in contact with the agar. A Whatman #1 filter disk (Cat. No. 1001-325) is placed, in duplicate, on the underside of a polyethylene PCR plate sealing film. […] The headspace around the inoculum is then sealed inside the well by the film with the adhering disk containing the fungicide and incubated inverted for 5 days at 28° C."}, "[2]": {"test_system": "Trichophyton mentagrophytes", "assay": "In vitro volatile assay (Example 26)", "assay_type": "cell-based", "conditions": "Trichophyton mentagrophytes, 120 h, 5 days at 28 C, 100% control, read-out: MIC (mg/L) Trichophyton mentagrophytes", "experimental": "as §1"}, "[3]": {"test_system": "Epidermophyton floccus", "assay": "In vitro volatile assay (Example 26)", "assay_type": "cell-based", "conditions": "Epidermophyton, 120 h, 5 days at 28 C, 100% control, read-out: MIC (mg/L) Epidermophyton floccus", "experimental": "as §1"}, "[4]": {"test_system": "M. piriformis", "assay": "Volatile MIC assay (Example 11)", "assay_type": "cell-based", "conditions": "Mucor piriformis"}, "[5]": {"test_system": "Botrytis cinerea", "assay": "In-clamshell Compound A applied by painting, spraying or sublimation; strawberries (Example 1)", "assay_type": "in vivo", "conditions": "5 mg/clamshell", "experimental": "An in vivo assay was used to evaluate the ability of Compound A to volatilize from a clamshell chamber and control pathogenic infection when applied by various techniques. Multiple empty 1-lb PET clamshells (ProducePackaging.com, #036QT) were placed inside triplicate air-tight 36 L chamber (Fisher Scientific, Catalogue #08-642-23C) fitted with a bulkhead septum port (Swagelok, SS-401-61, Solon, OH).\nCompound A headspace was permitted to equilibrate overnight at 21° C.\nFive milligrams of Compound A was dissolved in 1 ml of ethanol prior to being uniformly administered to the interior of the clamshell by painting or spraying, and then dried for 5 minutes. After coating the clamshells with Compound A using various application techniques (i.e., sublimation, spraying, or painting), eight ethanol-washed strawberries were placed in the clamshell with stem end facing downwards. Each strawberry fruit was wounded using a T15 screwdriver tip to a uniform depth of eight mm (8 mm). […] Uninoculated strawberries were removed from their commercial package, and directly transferred into treated clamshells without any washing or inoculation steps.\nTreated clamshells lids were closed, and then placed at 1° C. for an initial time period of 5 days. Clamshells were then removed from low temperature, and held for a second time period of 6 days at room temperature where the point of inoculation on the strawberry fruits was assessed for indication of disease incidence reported as a percentage (%). Severity of disease incidence was also reported."}, "[6]": {"test_system": "C. albicans", "assay": "In vitro volatile assay, yeast infection species (Example 27)", "assay_type": "cell-based", "conditions": "Candida albicans", "experimental": "More specifically, growth inhibition of yeast infection fungal species C. albicans and C. krusei (or I. orientalis) by volatile treatment of Compound 10 was assessed via a volatile assay.\nas §1, with “Compound 10 (i.e., Compound A).” for “Compounds A and 31, and compared to other registered fungicides (5-fluorocytosine, Amphotericin B, aspofungin diacetate, Fluconazole and Itraconazole).”, “C. albicans and C. krusei (or I. orientalis)” for “Epidermophyton floccus, Trichophyton rubrum, or Trichophyton mentagrophytes”, “The acetone/methanol is permitted to evaporate for 5 minutes. The” for “The”"}}, "note": "Like-named read-outs stand apart in the source and are kept apart here.", "data": [{"smiles": "OB1OCc2cc(F)ccc21", "note": "[Compound A, 5-fluoro-1,3-dihydro-1-hydroxy-2,1-benzoxaborole]", "values": [{"measurement": "MIC", "setting": "[1]", "result": 2, "unit": "mg/L"}, {"measurement": "MIC", "setting": "[2]", "result": 2, "unit": "mg/L"}, {"measurement": "MIC", "setting": "[3]", "result": 2, "unit": "mg/L"}, {"measurement": "MIC", "setting": "[4]", "result": 1.1, "unit": "µg/mL"}, {"measurement": "Gray Mold Incidence (%)", "setting": "[5]; Inoculated Fruit, Paint, Day 0", "result": 0.0, "unit": "%"}, {"measurement": "Gray Mold Incidence (%)", "setting": "[5]; Inoculated Fruit, Paint, Day 1", "result": 0.0, "unit": "%"}, {"measurement": "Gray Mold Incidence (%)", "setting": "[5]; Inoculated Fruit, Paint, Day 2", "result": 0.0, "unit": "%"}, {"measurement": "Gray Mold Incidence (%)", "setting": "[5]; Inoculated Fruit, Paint, Day 3", "result": 0.0, "unit": "%"}, {"measurement": "Gray Mold Incidence (%)", "setting": "[5]; Inoculated Fruit, Paint, Day 4", "result": 0.0, "unit": "%"}, {"measurement": "Gray Mold Incidence (%)", "setting": "[5]; Inoculated Fruit, Paint, Day 5", "result": 0.0, "unit": "%"}, {"measurement": "Gray Mold Incidence (%)", "setting": "[5]; Inoculated Fruit, Paint, Day 6", "result": 0.0, "unit": "%"}, {"measurement": "Gray Mold Incidence (%)", "setting": "[5]; Inoculated Fruit, Spray, Day 0", "result": 0.0, "unit": "%"}, {"measurement": "Gray Mold Incidence (%)", "setting": "[5]; Inoculated Fruit, Spray, Day 1", "result": 0.0, "unit": "%"}, {"measurement": "Gray Mold Incidence (%)", "setting": "[5]; Inoculated Fruit, Spray, Day 2", "result": 0.0, "unit": "%"}, {"measurement": "Gray Mold Incidence (%)", "setting": "[5]; Inoculated Fruit, Spray, Day 3", "result": 0.0, "unit": "%"}, {"measurement": "Gray Mold Incidence (%)", "setting": "[5]; Inoculated Fruit, Spray, Day 4", "result": 0.0, "unit": "%"}, {"measurement": "Gray Mold Incidence (%)", "setting": "[5]; Inoculated Fruit, Spray, Day 5", "result": 0.0, "unit": "%"}, {"measurement": "Gray Mold Incidence (%)", "setting": "[5]; Inoculated Fruit, Spray, Day 6", "result": 0.0, "unit": "%"}, {"measurement": "Gray Mold Incidence (%)", "setting": "[5]; Inoculated Fruit, Sublimation, Day 0", "result": 0.0, "unit": "%"}, {"measurement": "Gray Mold Incidence (%)", "setting": "[5]; Inoculated Fruit, Sublimation, Day 1", "result": 0.0, "unit": "%"}, {"measurement": "Gray Mold Incidence (%)", "setting": "[5]; Inoculated Fruit, Sublimation, Day 2", "result": 0.0, "unit": "%"}, {"measurement": "Gray Mold Incidence (%)", "setting": "[5]; Inoculated Fruit, Sublimation, Day 3", "result": 0.0, "unit": "%"}, {"measurement": "Gray Mold Incidence (%)", "setting": "[5]; Inoculated Fruit, Sublimation, Day 4", "result": 0.0, "unit": "%"}, {"measurement": "Gray Mold Incidence (%)", "setting": "[5]; Inoculated Fruit, Sublimation, Day 5", "result": 0.9, "unit": "%"}, {"measurement": "Gray Mold Incidence (%)", "setting": "[5]; Inoculated Fruit, Sublimation, Day 6", "result": 0.9, "unit": "%"}, {"measurement": "Gray Mold Incidence (%)", "setting": "[5]; Uninoculated Fruit, Paint, Day 0", "result": 0.0, "unit": "%"}, {"measurement": "Gray Mold Incidence (%)", "setting": "[5]; Uninoculated Fruit, Paint, Day 1", "result": 0.3, "unit": "%"}, {"measurement": "Gray Mold Incidence (%)", "setting": "[5]; Uninoculated Fruit, Paint, Day 2", "result": 3.9, "unit": "%"}, {"measurement": "Gray Mold Incidence (%)", "setting": "[5]; Uninoculated Fruit, Paint, Day 3", "result": 5.1, "unit": "%"}, {"measurement": "Gray Mold Incidence (%)", "setting": "[5]; Uninoculated Fruit, Paint, Day 4", "result": 7.4, "unit": "%"}, {"measurement": "Gray Mold Incidence (%)", "setting": "[5]; Uninoculated Fruit, Paint, Day 5", "result": 17.0, "unit": "%"}, {"measurement": "Gray Mold Incidence (%)", "setting": "[5]; Uninoculated Fruit, Paint, Day 6", "result": 21.7, "unit": "%"}, {"measurement": "Gray Mold Incidence (%)", "setting": "[5]; Uninoculated Fruit, Spray, Day 0", "result": 0.0, "unit": "%"}, {"measurement": "Gray Mold Incidence (%)", "setting": "[5]; Uninoculated Fruit, Spray, Day 1", "result": 0.6, "unit": "%"}, {"measurement": "Gray Mold Incidence (%)", "setting": "[5]; Uninoculated Fruit, Spray, Day 2", "result": 2.1, "unit": "%"}, {"measurement": "Gray Mold Incidence (%)", "setting": "[5]; Uninoculated Fruit, Spray, Day 3", "result": 4.8, "unit": "%"}, {"measurement": "Gray Mold Incidence (%)", "setting": "[5]; Uninoculated Fruit, Spray, Day 4", "result": 6.0, "unit": "%"}, {"measurement": "Gray Mold Incidence (%)", "setting": "[5]; Uninoculated Fruit, Spray, Day 5", "result": 17.9, "unit": "%"}, {"measurement": "Gray Mold Incidence (%)", "setting": "[5]; Uninoculated Fruit, Spray, Day 6", "result": 19.9, "unit": "%"}, {"measurement": "Gray Mold Incidence (%)", "setting": "[5]; Uninoculated Fruit, Sublimation, Day 0", "result": 0.0, "unit": "%"}, {"measurement": "Gray Mold Incidence (%)", "setting": "[5]; Uninoculated Fruit, Sublimation, Day 1", "result": 0.3, "unit": "%"}, {"measurement": "Gray Mold Incidence (%)", "setting": "[5]; Uninoculated Fruit, Sublimation, Day 2", "result": 1.5, "unit": "%"}, {"measurement": "Gray Mold Incidence (%)", "setting": "[5]; Uninoculated Fruit, Sublimation, Day 3", "result": 3.3, "unit": "%"}, {"measurement": "Gray Mold Incidence (%)", "setting": "[5]; Uninoculated Fruit, Sublimation, Day 4", "result": 5.7, "unit": "%"}, {"measurement": "Gray Mold Incidence (%)", "setting": "[5]; Uninoculated Fruit, Sublimation, Day 5", "result": 16.7, "unit": "%"}, {"measurement": "Gray Mold Incidence (%)", "setting": "[5]; Uninoculated Fruit, Sublimation, Day 6", "result": 20.2, "unit": "%"}, {"measurement": "inhibition at 0.017 µg/mL", "setting": "[6]; 0.017 mg/L, read-out: Growth Inhibition (%) C. albicans", "result": 2, "unit": "%"}, {"measurement": "inhibition at 0.035 µg/mL", "setting": "[6]; 0.035 mg/L, read-out: Growth Inhibition (%) C. albicans", "result": 1.6, "unit": "%"}, {"measurement": "inhibition at 0.07 µg/mL", "setting": "[6]; 0.07 mg/L, read-out: Growth Inhibition (%) C. albicans", "result": 7.9, "unit": "%"}, {"measurement": "inhibition at 0.1 µg/mL", "setting": "[6]; 0.1 mg/L, read-out: Growth Inhibition (%) C. albicans", "result": 11.9, "unit": "%"}, {"measurement": "inhibition at 0.3 µg/mL", "setting": "[6]; 0.3 mg/L, read-out: Growth Inhibition (%) C. albicans", "result": 18.5, "unit": "%"}, {"measurement": "inhibition at 0.6 µg/mL", "setting": "[6]; 0.6 mg/L, read-out: Growth Inhibition (%) C. albicans", "result": 22.2, "unit": "%"}, {"measurement": "inhibition at […]", "setting": "[6]; 1.1 mg/L, read-out: Growth Inhibition (%) C. albicans", "result": 40.2, "unit": "%"}, {"measurement": "inhibition at […]", "setting": "[6]; 2.2 mg/L, read-out: Growth Inhibition (%) C. albicans", "result": 100, "unit": "%"}, {"measurement": "inhibition at […]", "setting": "[6]; 4.5 mg/L, read-out: Growth Inhibition (%) C. albicans", "result": 100, "unit": "%"}, {"measurement": "inhibition at […]", "setting": "[6]; 8.9 mg/L, read-out: Growth Inhibition (%) C. albicans", "result": 100, "unit": "%"}, {"measurement": "MIC", "setting": "[6]; 120 h, 100% control, 5 days at 28 C, read-out: minimum inhibitory concentration (MIC) for C. albicans", "result": 2.2, "unit": "µg/mL"}]}]}
